Each block holds one compound with its values, some of them ahead of it. Active and inactive are the calls of the source.
What was measured:
[1] = target: Polyadenylate-binding protein 1 (Homo sapiens, UniProt P11940); assay: blockers of PABP interaction with poly(A) – biochemical, fluorescence polarization, […] (AID 2014)
[2] = target: Eukaryotic translation initiation factor 4H (Homo sapiens, UniProt Q15056); assay: eIF4H binding inhibition – biochemical, uHTS, fluorescence polarization, translation initiation inhibitor project, primary screen (AID 2012)
Cytochrome P450 2D6 = Cytochrome P450 2D6 (Homo sapiens, UniProt P10635); assay: qHTS Assay for Inhibitors and Substrates of Cytochrome P450 2D6. [Related pubchem assays: 410 ]; format: ADME; details: read-out: Potency
[3] = target: T1, Alkaline phosphatase, tissue-nonspecific isozyme (Homo sapiens, UniProt P05186)
T1 sequence (P05186 whole entry): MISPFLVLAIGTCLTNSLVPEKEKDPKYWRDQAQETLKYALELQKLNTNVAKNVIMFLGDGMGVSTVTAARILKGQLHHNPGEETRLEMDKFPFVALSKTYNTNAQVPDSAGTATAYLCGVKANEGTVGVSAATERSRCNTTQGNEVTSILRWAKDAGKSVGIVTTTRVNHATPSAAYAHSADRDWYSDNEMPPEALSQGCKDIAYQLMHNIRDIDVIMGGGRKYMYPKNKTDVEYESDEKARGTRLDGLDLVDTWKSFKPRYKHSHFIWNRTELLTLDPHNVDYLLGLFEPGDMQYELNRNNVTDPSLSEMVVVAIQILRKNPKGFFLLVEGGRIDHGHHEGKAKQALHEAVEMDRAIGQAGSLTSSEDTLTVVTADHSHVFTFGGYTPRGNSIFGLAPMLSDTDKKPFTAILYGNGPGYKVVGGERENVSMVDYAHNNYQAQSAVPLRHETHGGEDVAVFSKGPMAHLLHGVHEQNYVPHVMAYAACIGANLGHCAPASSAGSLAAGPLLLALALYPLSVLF

SUMO E1/E2 = SUMO E1/E2 (Homo sapiens, UniProt P63279+Q9UBE0+Q9UBT2); assay: SAR analysis of SUMOylation using HTRF in an in-Vitro dose response assay. [Related pubchem assays (depositor defined):AID2006, AID2011, AID2018, AID2069, AID2658]; format: functional
[4] = target: T2, Voltage-gated N-type calcium channel alpha-1B subunit/Amyloid beta A4 precursor protein-binding family A member 1 (Homo sapiens, UniProt Q00975+Q02410); assay: disruptors of Mint-PDZ/N-type channel peptide interaction – biochemical, HTRF, SAR follow-up (AID 2489); format: functional
T2 sequence (Q00975 whole entry): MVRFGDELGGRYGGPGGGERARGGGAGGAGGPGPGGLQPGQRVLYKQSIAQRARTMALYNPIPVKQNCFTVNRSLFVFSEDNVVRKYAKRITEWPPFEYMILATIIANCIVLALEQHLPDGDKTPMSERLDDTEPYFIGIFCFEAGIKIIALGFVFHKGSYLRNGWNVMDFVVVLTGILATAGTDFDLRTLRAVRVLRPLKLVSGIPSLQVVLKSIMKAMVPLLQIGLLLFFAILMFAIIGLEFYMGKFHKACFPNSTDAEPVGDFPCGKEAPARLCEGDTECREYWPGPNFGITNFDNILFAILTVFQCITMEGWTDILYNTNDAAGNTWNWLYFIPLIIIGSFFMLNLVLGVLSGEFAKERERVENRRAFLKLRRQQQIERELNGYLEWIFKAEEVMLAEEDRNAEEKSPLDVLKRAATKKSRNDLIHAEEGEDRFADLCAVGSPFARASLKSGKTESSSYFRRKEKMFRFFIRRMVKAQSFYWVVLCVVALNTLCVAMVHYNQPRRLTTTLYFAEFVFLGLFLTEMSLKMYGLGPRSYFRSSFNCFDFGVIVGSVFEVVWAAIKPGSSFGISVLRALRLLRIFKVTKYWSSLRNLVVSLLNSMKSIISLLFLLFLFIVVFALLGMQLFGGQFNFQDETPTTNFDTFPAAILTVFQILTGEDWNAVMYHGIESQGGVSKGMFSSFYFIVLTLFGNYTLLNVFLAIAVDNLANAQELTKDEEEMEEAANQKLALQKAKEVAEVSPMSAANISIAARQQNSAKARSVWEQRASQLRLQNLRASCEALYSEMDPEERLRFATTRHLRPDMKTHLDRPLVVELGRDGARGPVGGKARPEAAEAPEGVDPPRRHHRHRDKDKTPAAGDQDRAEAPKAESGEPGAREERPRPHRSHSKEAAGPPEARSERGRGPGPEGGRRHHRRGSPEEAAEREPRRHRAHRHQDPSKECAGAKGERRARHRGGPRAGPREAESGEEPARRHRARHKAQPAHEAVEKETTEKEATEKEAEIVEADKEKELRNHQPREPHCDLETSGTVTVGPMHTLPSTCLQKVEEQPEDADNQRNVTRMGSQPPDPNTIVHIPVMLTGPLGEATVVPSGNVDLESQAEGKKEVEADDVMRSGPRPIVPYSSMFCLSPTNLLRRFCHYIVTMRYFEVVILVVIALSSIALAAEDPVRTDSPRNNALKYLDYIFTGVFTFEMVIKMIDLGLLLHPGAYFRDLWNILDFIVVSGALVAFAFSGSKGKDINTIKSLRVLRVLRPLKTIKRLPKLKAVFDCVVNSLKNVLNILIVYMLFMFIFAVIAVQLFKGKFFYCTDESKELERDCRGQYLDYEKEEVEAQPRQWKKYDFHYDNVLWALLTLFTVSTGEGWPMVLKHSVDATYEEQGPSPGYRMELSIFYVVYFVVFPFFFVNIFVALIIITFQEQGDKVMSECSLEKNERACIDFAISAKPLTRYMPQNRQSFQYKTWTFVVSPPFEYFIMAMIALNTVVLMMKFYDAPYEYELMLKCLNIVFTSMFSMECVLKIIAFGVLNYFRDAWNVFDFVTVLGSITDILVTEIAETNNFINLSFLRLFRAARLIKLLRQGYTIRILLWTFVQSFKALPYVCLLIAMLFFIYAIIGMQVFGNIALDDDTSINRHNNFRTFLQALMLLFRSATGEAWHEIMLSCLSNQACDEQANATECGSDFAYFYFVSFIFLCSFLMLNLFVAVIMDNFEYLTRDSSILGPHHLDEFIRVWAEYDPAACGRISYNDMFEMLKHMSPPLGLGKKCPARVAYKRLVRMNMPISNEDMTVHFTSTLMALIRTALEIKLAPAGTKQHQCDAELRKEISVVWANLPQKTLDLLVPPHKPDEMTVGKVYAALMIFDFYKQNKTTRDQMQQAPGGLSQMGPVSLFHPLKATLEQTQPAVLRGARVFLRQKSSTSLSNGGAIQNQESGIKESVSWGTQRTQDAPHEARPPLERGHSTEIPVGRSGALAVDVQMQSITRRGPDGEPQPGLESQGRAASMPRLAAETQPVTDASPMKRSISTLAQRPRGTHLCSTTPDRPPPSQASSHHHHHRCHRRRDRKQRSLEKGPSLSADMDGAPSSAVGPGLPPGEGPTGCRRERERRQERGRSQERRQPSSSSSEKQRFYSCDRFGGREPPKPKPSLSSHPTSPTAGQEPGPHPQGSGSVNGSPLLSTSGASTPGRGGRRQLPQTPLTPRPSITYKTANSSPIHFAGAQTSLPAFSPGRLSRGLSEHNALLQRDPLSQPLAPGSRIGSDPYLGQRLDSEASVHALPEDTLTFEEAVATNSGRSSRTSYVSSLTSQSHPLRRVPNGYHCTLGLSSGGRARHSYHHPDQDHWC
T2 sequence (Q02410 whole entry): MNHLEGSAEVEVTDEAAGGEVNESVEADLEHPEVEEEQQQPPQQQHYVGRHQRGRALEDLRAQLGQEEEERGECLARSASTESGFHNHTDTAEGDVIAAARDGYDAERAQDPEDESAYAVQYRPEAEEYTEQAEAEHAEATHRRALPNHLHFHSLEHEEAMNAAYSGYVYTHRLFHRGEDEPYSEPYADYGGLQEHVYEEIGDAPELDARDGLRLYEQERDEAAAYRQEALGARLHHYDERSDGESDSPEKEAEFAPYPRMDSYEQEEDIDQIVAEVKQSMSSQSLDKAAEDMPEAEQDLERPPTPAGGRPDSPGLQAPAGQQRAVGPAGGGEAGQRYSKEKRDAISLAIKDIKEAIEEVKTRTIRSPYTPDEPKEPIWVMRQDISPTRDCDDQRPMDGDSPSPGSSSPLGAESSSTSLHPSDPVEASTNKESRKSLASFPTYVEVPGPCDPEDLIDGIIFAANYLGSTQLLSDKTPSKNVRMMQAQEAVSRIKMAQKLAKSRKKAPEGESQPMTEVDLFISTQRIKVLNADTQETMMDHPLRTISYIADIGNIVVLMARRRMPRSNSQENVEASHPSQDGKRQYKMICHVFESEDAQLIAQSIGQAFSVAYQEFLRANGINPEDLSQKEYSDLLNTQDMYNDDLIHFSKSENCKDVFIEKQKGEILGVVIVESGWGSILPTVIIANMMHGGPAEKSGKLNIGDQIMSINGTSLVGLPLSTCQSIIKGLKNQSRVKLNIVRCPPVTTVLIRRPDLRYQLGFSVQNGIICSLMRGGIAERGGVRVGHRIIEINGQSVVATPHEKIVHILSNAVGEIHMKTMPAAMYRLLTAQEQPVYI

[5] = target: T2, Voltage-gated N-type calcium channel alpha-1B subunit/Amyloid beta A4 precursor protein-binding family A member 1; assay: disruptors of Mint-PDZ/N-type channel peptide interaction – biochemical, HTRF, set 2, SAR follow-up (AID 434980); format: functional
Estrogen receptor = target: T3, Estrogen receptor (Homo sapiens, UniProt P03372);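 further: potency for inhibiting coactivator peptide recruitment to the receptor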
T3 sequence (P03372 whole entry): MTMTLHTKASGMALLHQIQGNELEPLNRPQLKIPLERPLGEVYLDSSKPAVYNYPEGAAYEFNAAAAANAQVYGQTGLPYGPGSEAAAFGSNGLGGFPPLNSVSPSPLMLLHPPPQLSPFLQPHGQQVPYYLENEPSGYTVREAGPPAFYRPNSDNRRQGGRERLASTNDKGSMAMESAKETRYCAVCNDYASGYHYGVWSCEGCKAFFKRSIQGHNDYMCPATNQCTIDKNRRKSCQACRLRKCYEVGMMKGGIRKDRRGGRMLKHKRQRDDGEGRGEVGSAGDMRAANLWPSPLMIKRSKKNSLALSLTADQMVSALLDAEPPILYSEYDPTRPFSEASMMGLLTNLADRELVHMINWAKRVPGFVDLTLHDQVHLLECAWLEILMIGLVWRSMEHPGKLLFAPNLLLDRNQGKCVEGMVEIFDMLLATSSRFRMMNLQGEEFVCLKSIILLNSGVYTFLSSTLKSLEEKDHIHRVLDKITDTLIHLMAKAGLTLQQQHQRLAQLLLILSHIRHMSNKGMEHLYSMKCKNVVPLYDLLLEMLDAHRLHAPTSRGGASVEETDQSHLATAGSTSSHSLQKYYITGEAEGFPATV

Bcl-2-like protein 10 = Bcl-2-like protein 10 (Homo sapiens, UniProt Q9HD36); assay: Bcl-B/TR3 peptide binding disruption – biochemical, fluorescence polarization, FITC-TR3 peptide, selectivity assay for Bfl-1 inhibitor project, primary screen (AID 748);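 further: fluorescence polarization from a fluorescein-labelled TR3 peptide binding purified Bcl-B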
[6] = target: T4, Intestinal-type alkaline phosphatase (Homo sapiens, UniProt P09923); assay: human intestinal alkaline phosphatase activators, dose response, biochemical, luminescence, uHTS hits (AID 463120); format: functional
T4 sequence (P09923 whole entry): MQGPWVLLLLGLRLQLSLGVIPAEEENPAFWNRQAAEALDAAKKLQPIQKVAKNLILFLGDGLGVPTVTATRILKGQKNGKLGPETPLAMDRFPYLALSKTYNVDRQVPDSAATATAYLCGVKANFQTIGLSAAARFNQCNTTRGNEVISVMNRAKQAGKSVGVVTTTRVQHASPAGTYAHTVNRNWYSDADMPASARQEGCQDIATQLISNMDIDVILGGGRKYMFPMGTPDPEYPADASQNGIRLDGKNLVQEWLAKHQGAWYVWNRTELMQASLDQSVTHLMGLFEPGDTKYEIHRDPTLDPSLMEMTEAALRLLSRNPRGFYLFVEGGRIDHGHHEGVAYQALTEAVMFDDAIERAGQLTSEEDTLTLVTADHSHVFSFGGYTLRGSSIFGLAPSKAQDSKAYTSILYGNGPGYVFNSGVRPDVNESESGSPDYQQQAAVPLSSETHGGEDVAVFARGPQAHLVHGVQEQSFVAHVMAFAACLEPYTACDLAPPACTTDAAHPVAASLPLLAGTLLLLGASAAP

[7] = target: T4, Intestinal-type alkaline phosphatase; assay: activation of human intestinal alkaline phosphatase – biochemical, luminescent, uHTS hits, set 2, dose response (AID 488817); format: functional;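 further: potency of activators that raise enzyme activity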
[8] = target: T1, Alkaline phosphatase, tissue-nonspecific isozyme; assay: activation of tissue-nonspecific alkaline phosphatase – biochemical, TNAP isozyme, human IAP uHTS hits, selectivity assay for human IAP activator project, dose response (AID 488886); format: functional;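 further: potency of compounds raising TNAP activity as a selectivity check on IAP activators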
[9] = target: Intestinal-type alkaline phosphatase (Mus musculus, UniProt P24822); assay: PubChem AID 488874; format: functional
Salmon testes DNA = assay: acridine orange-DNA binding displacement – biochemical, fluorescence polarization, cherry-picked samples, set 2, artefact control for KSHV LANA DNA-binding inhibitor project, dose response (AID 504727); set-up: species or system Salmonidae
[10] = target: Acyl-homoserine lactone acylase PvdQ (Pseudomonas aeruginosa (strain LESB58), UniProt Q9I194); assay: PvdQ acylase enzyme activity blockers – biochemical, fluorescence, plate reader and imaging, cherry-picks, dose response (AID 493231)
[11] = target: T5, Small ubiquitin-related modifier 1 (Homo sapiens, UniProt P63165); assay: SUMO1 protein-protein binding blockers, potency – biochemical, FRET, dose response (AID 624383); format: functional; details: read-out: IC50_Mean
T5 sequence (P63165 whole entry): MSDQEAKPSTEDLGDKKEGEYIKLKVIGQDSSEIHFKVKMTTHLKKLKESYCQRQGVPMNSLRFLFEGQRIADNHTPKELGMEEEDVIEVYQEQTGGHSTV

[12] = target: cAMP-dependent protein kinase catalytic subunit alpha (Homo sapiens, UniProt P17612); assay: inhibition of human PKA kinase activity – biochemical, Caliper mobility shift, dry powder samples, dose response (AID 504583)
Prothrombin = Prothrombin (Bos taurus, UniProt P00735); assay: thrombin protease inhibitors – biochemical, fluorescence polarization, uHTS hits, dose response (AID 602369); format: functional
[13] = target: T5, Small ubiquitin-related modifier 1; assay: SUMO1 protein interaction blockers, potency – biochemical, fluorescence polarization, uHTS hits, dose response (AID 624382); format: functional; details: read-out: IC50_Mean
[14] = target: 72 kDa type IV collagenase (Homo sapiens, UniProt P08253); assay: Dose Response validation of uHTS RPN11 inhibitor hits using a MMP-2 Fluorescence assay.; format: functional
Sequence of 72 kDa type IV collagenase (P08253 whole entry): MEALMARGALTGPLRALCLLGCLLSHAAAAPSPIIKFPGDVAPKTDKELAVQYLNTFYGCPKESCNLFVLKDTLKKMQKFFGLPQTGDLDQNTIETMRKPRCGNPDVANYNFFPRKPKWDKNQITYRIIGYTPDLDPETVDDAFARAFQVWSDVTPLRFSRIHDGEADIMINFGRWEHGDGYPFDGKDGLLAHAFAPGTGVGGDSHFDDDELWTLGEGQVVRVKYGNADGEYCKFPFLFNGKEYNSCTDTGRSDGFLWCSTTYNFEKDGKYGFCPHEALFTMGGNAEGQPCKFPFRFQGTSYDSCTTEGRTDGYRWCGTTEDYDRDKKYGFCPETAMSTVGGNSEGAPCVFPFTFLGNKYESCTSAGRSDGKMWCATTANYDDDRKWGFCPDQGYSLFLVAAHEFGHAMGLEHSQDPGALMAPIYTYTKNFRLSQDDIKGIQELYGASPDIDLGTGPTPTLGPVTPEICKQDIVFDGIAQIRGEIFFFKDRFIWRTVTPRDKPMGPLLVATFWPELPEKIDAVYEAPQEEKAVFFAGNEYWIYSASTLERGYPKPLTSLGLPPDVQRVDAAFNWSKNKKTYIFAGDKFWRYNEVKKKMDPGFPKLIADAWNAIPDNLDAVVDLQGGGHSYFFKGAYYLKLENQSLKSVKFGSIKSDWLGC

cells = details: A549
Caspase-6 = target: T6, Caspase-6 (Homo sapiens, UniProt P55212); assay: inhibition of CASP6 peptide cleavage – biochemical, VEID-R110 fluorescence, cherry-pick, dose response (AID 720632)
T6 sequence (P55212 whole entry): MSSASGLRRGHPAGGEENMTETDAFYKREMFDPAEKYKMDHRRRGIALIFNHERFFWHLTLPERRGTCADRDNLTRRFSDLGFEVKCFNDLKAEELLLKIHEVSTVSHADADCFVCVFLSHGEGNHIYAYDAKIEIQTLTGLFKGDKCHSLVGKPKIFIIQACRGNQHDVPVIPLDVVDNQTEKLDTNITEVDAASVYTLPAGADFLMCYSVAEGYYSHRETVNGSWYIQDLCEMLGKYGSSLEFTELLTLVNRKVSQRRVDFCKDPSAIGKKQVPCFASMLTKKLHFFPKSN

[15] = target: 26S proteasome non-ATPase regulatory subunit 14 (Homo sapiens, UniProt O00487); assay: inhibition of proteasome subunit RPN11 – biochemical, fluorescence polarization, uHTS hits, confirmation (AID 602368); format: functional
[16] = viability loss in HepG2 liver cells – cell-based, ATP luminescence, cherry-pick, set 6, cytotoxicity control, dose response (AID 1053125); format: functional
[17] = target: DNA dC->dU-editing enzyme APOBEC-3G (Homo sapiens, UniProt Q9HC16); assay: Dose Response confirmation of small molecule APOBEC3G DNA Deaminase Inhibitors via a fluorescence-based single-stranded DNA deaminase assay. [Related pubchem assays (depositor defined):AID493012, AID493028]; format: functional
[18] = target: T2, Voltage-gated N-type calcium channel alpha-1B subunit/Amyloid beta A4 precursor protein-binding family A member 1; format: protein assay
[19] = target: T2, Voltage-gated N-type calcium channel alpha-1B subunit/Amyloid beta A4 precursor protein-binding family A member 1; format: protein assay; remark: listed apart in the source
[20] = target: Glucose-6-phosphate 1-dehydrogenase (Homo sapiens, UniProt P11413); assay: inhibition of Homo sapiens G6PD, dose series – biochemical, fluorescence, selectivity assay for P. falciparum G6PD inhibitor project, dose response (AID 504792); format: functional
HEK293 = assay: Fluorescence-based counterscreen for potentiators or agonists of NPY-Y1: cell-based high-throughput dose response assay for inhibitors of cyclic nucleotide gated ion channel (CNGC) activity. In this assay, the parental HEK293 cell line transfected with a cyclic-nucleotide gated ion channel (CNGC)-based cAMP sensor is used to measure inhibition of isoproterenol-induced CNGC …; format: functional; details: Homo sapiens
[21] = target: Neurotensin receptor type 1 (Homo sapiens, UniProt P30989); format: functional;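 further: Image-based confirmatory dose-response assay measuring agonist activity at NTR1; NTR1-expressing U2OS osteosarcoma cells imaged for beta-arrestin GFP spot formation; agonist potency where compounds increase beta-arrestin recruitment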
Sequence of Neurotensin receptor type 1 (P30989 whole entry): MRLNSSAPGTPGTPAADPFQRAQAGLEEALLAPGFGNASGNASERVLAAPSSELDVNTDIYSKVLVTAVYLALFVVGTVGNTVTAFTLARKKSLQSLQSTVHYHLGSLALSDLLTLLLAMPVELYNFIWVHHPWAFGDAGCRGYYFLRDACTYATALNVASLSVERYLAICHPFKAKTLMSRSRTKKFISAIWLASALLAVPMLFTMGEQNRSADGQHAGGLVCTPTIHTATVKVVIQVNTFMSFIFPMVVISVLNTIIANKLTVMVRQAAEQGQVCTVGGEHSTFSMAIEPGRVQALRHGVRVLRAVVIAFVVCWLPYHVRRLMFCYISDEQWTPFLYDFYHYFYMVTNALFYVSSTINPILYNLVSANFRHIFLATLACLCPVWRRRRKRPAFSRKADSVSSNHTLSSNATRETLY

[22] = target: Neuropeptide Y receptor type 1 (Homo sapiens, UniProt P25929); assay: Fluorescence-based dose response cell-based high-throughput screening assay for agonists of NPY-Y1. [Related pubchem assays: 1697 (Screening assay (NPY-Y1 agonists).), 1359 (Screening assay (NPY-Y2 potentiators or agonists).), 1304 (Screening assay (NPY-Y1 potentiators or agonists).), 1704 (Screening assay (CNGC inhibitors).), 1791 (Summary AID.)]; format: functional
[23] = target: Neuropeptide Y receptor type 2 (Homo sapiens, UniProt P49146); assay: Fluorescence-based counterscreen for agonists of NPY-Y1: cell-based high-throughput dose response assay for agonists of NPY-Y2.; format: functional

Structure (SMILES): CCN1C(NCC(C)C)=N[C@@H](c2cccc(C(F)(F)F)c2)C(C(=O)OC)=C1C
IC50 [1]: 10 µM (active) | IC50 [2]: > 100 µM (inactive)

AC50 (Cytochrome P450 2D6): 3.16 µM (inconclusive)
Structure (SMILES): COC(=O)NC(c1ccc(F)cc1)C(C(C)=O)C(=O)OC (configuration not stated)

EC50 [3]: > 100 µM (not active)
Structure (SMILES): Oc1ccccc1/C=N/Nc1cccc2cccnc12

IC50 (SUMO E1/E2): 2.51 µM (active) | IC50 [4]: 24.7 µM (active) | IC50 [5]: 22 µM (active)
Structure (SMILES): COc1ccccc1CNC(=O)c1cc(-c2ccco2)nc2ccccc12

IC50 (Estrogen receptor): 24.9 µM (active) | IC50 (Bcl-2-like protein 10): 36.6 µM (active)
Structure (SMILES): CN(C)S(=O)(=O)N(CC(=O)N(Cc1ccccc1)Cc1ccccc1)c1ccccc1

EC50 [6]: 8.73 µM (active) | EC50 [7]: 13.7 µM (active) | EC50 [8]: 14.1 µM (active) | IC50 [9]: 49.8 µM (active)
Structure (SMILES): Cc1nc2c3ccccc3nc(NNC(=O)CCC(=O)NCCN3CCN(c4ccccc4)CC3)n2n1

Structure (SMILES): CSc1nc(SC(C)C(=O)O)c2c3c(sc2n1)COC(C)(C)C3 (configuration not stated)
AC50 (Salmon testes DNA): 90.3 µM (active)

Structure (SMILES): O=C1NN(c2ccccc2)C(=O)C2C1C1C=CC2C12CC2 (configuration not stated)
AC50 [10]: 18.8 µM (active)

Structure (SMILES): Nc1nc(-c2cc(O)ccc2[N+](=O)[O-])cc(-c2ccccc2)c1[N+](=O)[O-]
IC50 [11]: 9.51 µM (active) | AC50 [12]: 1.11 µM (active) | IC50 (Prothrombin): 53 µM (active) | IC50 [13]: > 66.6 µM (inactive) | IC50 [14]: > 100 µM (inactive) | AC50 (cells): 42.5 µM (active) | AC50 (Caspase-6): 10.7 µM (active) | IC50 [15]: 23.9 µM (active) | AC50 [16]: > 52 µM (inactive)

Structure (SMILES): Cc1cc(C)c2c(=O)n(CC(=O)NC3CCCC3)sc2n1
IC50 [17]: > 100 µM (inactive) | IC50 [18]: 42.7 µM (active) | IC50 [19]: 7.6 µM (active) | IC50 [20]: > 80 µM (inactive)

Structure (SMILES): CC1CCC(C(C)C)C(OCC(O)CNC(C)c2ccccc2)C1 (configuration not stated)
IC50 (HEK293): > 35.4 µM (not active) | EC50 [21]: 21.5 µM (inactive) | EC50 [22]: > 35.4 µM (not active) | EC50 [23]: > 35.4 µM (not active)

Reference: ChEMBL document CHEMBL1201862, “PubChem BioAssay data set” (2004)
